The supplement of paper PMC10307832

How the values were obtained:
Test in all cases: relative viability (nuclei count vs DMSO), 5 days (fraction); higher = more cells survive
Obatoclax + Lapatinib = compound: COC1=CC(c2cc3ccccc3[nH]2)=N/C1=C\c1[nH]c(C)cc1C [Obatoclax] + CS(=O)(=O)CCNCc1ccc(-c2ccc3ncnc(Nc4ccc(OCc5cccc(F)c5)c(Cl)c4)c3c2)o1 [Lapatinib] (partner 2 µM)
Method in brief: (§1)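 Nuclei were stained with Hoechst during a one-step fixation (final 0.05% Triton X-100, 1% formaldehyde, 1 ug/ml Hoechst) carried out 5 days after dosing, then counted on 4× images. The cells, lung cancer lines in 1536-well plates, had been dosed by pin tool the day after seeding with one drug alone or a fixed anchor-drug dose plus five library-drug doses (not always all listed) in √10 steps. Relative viability is the nuclei count in treated wells divided by that in vehicle wells, and each value is the median of duplicate plates.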

Obatoclax + Pictilisib = compound: COC1=CC(c2cc3ccccc3[nH]2)=N/C1=C\c1[nH]c(C)cc1C [Obatoclax] + CS(=O)(=O)N1CCN(Cc2cc3nc(-c4cccc5[nH]ncc45)nc(N4CCOCC4)c3s2)CC1 [Pictilisib] (partner 1 µM)
Method in brief: as §1

Obatoclax + Tozasertib = compound: COC1=CC(c2cc3ccccc3[nH]2)=N/C1=C\c1[nH]c(C)cc1C [Obatoclax] + Cc1cc(Nc2cc(N3CCN(C)CC3)nc(Sc3ccc(NC(=O)C4CC4)cc3)n2)n[nH]1 [Tozasertib] (partner 0.1 µM)
Method in brief: as §1

Obatoclax + Phenformin = compound: COC1=CC(c2cc3ccccc3[nH]2)=N/C1=C\c1[nH]c(C)cc1C [Obatoclax] + N=C(N)NC(=N)NCCc1ccccc1 [Phenformin] (partner 250 µM)
Method in brief: as §1

Row | Cell Line | relative viability (Obatoclax + Lapatinib; first compound 0.01 µM) | relative viability (Obatoclax + Lapatinib; first compound 0.03162 µM) | relative viability (Obatoclax + Lapatinib; first compound 0.1 µM) | relative viability (Obatoclax + Lapatinib; first compound 0.3162 µM) | relative viability (Obatoclax + Lapatinib; first compound 1 µM) | relative viability (Obatoclax + Pictilisib; first compound 0.01 µM) | relative viability (Obatoclax + Pictilisib; first compound 0.03162 µM) | relative viability (Obatoclax + Pictilisib; first compound 0.1 µM) | relative viability (Obatoclax + Pictilisib; first compound 0.3162 µM) | relative viability (Obatoclax + Pictilisib; first compound 1 µM) | relative viability (Obatoclax + Tozasertib; first compound 0.01 µM) | relative viability (Obatoclax + Tozasertib; first compound 0.03162 µM) | relative viability (Obatoclax + Tozasertib; first compound 0.1 µM) | relative viability (Obatoclax + Tozasertib; first compound 0.3162 µM) | relative viability (Obatoclax + Tozasertib; first compound 1 µM) | relative viability (Obatoclax + Phenformin; first compound 0.01 µM) | relative viability (Obatoclax + Phenformin; first compound 0.03162 µM) | relative viability (Obatoclax + Phenformin; first compound 0.1 µM) | relative viability (Obatoclax + Phenformin; first compound 0.3162 µM) | relative viability (Obatoclax + Phenformin; first compound 1 µM)
1 | NCI-H1944 | 0.904 | 0.659 | 0.791 | 0.794 | 0.787 | 0.34 | 0.332 | 0.337 | 0.295 | 0.336 | 0.258 | 0.254 | 0.287 | 0.263 | 0.24 | 0.215 | 0.202 | 0.149 | 0.201 | 0.18
2 | COR-L 105 | 0.368 | 0.318 | 0.369 | 0.294 | 0.252 | 0.407 | 0.47 | 0.495 | 0.328 | 0.286 | 0.381 | 0.316 | 0.345 | 0.284 | 0.248 | 0.4 | 0.53 | 0.637 | 0.333 | 0.266
3 | LU99A | 0.997 | 0.922 | 0.914 | 0.255 | 0.196 | 0.337 | 0.298 | 0.364 | 0.263 | 0.2 | 0.304 | 0.28 | 0.287 | 0.288 | 0.233 | 0.885 | 0.854 | 0.74 | 0.77 | 0.417
4 | H3255 | 0.51 | 0.244 | 0.327 | 0.256 | 0.315 | 0.476 | 0.491 | 0.572 | 0.456 | 0.434 | 0.6 | 0.796 | 0.513 | 0.638 | 0.73 | 0.306 | 0.377 | 0.372 | 0.335 | 0.42
5 | NCI-H1734 | 1.04 | 0.994 | – | 0.661 | 0.706 | 0.466 | 0.457 | – | 0.361 | 0.229 | 0.296 | 0.264 | 0.265 | 0.236 | 0.226 | 0.436 | 0.341 | 0.318 | 0.318 | 0.32
6 | NCI-H1915 | 1.03 | 0.879 | 0.852 | 0.978 | 0.925 | 0.967 | 0.823 | 0.968 | 0.989 | 0.933 | 0.401 | 0.405 | 0.424 | 0.382 | 0.414 | 0.361 | 0.362 | 0.337 | 0.363 | 0.343
7 | NCI-H2009 | 0.92 | 1 | 0.447 | 0.234 | 0.222 | 0.927 | 0.936 | 0.706 | 0.281 | 0.228 | 0.771 | 0.824 | 0.703 | 0.291 | 0.255 | 0.472 | 0.507 | 0.385 | 0.27 | 0.194
8 | NCI-H1651 | 0.645 | 0.764 | 0.744 | 0.664 | 0.341 | 0.58 | 0.567 | 0.634 | 0.256 | 0.188 | 0.796 | 0.752 | 0.737 | 0.552 | 0.468 | 0.384 | 0.324 | 0.386 | 0.252 | 0.184
9 | HOP-62 | 0.963 | 0.909 | 0.976 | 1.04 | 1.05 | 0.649 | 0.803 | 0.449 | 0.761 | 0.757 | 0.357 | 0.343 | 0.353 | 0.393 | 0.299 | 0.693 | 0.699 | 0.604 | 0.662 | 0.404
10 | CAL-12T | 0.609 | 0.733 | 0.755 | 0.392 | 0.287 | 0.395 | 0.472 | 0.396 | 0.223 | 0.395 | 0.389 | 0.326 | 0.36 | 0.153 | 0.0881 | 0.552 | 0.612 | 0.538 | 0.155 | 0.102
11 | NCI-H3122 | 0.987 | 1.05 | 0.964 | 1.03 | 1.03 | 0.575 | 0.634 | 0.767 | 0.615 | 0.497 | 0.389 | 0.361 | 0.382 | 0.373 | 0.391 | 0.385 | 0.404 | 0.317 | 0.386 | 0.351
12 | NCI-H1395 | 1 | 0.943 | 0.79 | 1.09 | 0.592 | 0.815 | 0.488 | 0.485 | 0.811 | 0.519 | 0.674 | 0.609 | 0.64 | 0.769 | 0.547 | 0.449 | 0.38 | 0.428 | 0.467 | 0.44
13 | PC-14 | 0.297 | 0.309 | 0.334 | 0.257 | 0.301 | 0.712 | 0.622 | 0.681 | 0.716 | 0.324 | 0.553 | 0.562 | 0.473 | 0.535 | 0.348 | 0.551 | 0.612 | 0.308 | 0.425 | 0.281
14 | BEN | 0.726 | 0.696 | 0.305 | 0.792 | 0.698 | 0.534 | 0.57 | 0.447 | 0.54 | 0.587 | 0.491 | 0.467 | – | 0.626 | 0.506 | 0.287 | 0.224 | – | 0.286 | 0.277
15 | EPLC-272H | 0.942 | 0.909 | 0.458 | 0.913 | 0.883 | 0.338 | 0.324 | 0.315 | 0.273 | 0.343 | 0.255 | 0.229 | 0.343 | 0.326 | 0.545 | 0.255 | 0.277 | 0.351 | 0.225 | 0.158
16 | LK-2 | 0.994 | 0.838 | 0.915 | 0.886 | 0.805 | 0.566 | 0.639 | 0.655 | 0.502 | 0.581 | 0.194 | 0.175 | 0.197 | 0.208 | 0.149 | 0.547 | 0.485 | 0.483 | 0.464 | 0.346
17 | UMC-11 | 1.06 | 1.04 | 0.973 | 0.613 | 0.346 | 0.849 | 0.819 | 0.806 | 0.645 | 0.298 | 0.202 | 0.197 | 0.234 | 0.249 | 0.22 | 0.303 | 0.294 | 0.291 | 0.272 | 0.242
18 | HCC-827 | 0.183 | 0.195 | 0.226 | 0.229 | 0.271 | 1.04 | 0.948 | 0.953 | 0.916 | 1.04 | 0.389 | 0.418 | 0.44 | 0.412 | 0.411 | 0.424 | 0.409 | 0.46 | 0.373 | 0.435
19 | NCI-H1993 | 0.809 | 0.771 | 0.835 | 0.755 | 0.865 | 0.804 | 0.833 | 0.842 | 1.02 | 0.733 | 0.594 | 0.637 | 0.618 | 0.604 | 0.624 | 0.481 | 0.537 | 0.531 | 0.478 | 0.48
20 | NCI-H647 | 1.02 | 0.982 | 0.48 | 0.189 | 0.144 | 0.469 | 0.393 | 0.118 | 0.33 | 0.153 | 0.254 | 0.304 | 0.301 | 0.222 | 0.112 | 0.566 | 0.576 | 0.518 | 0.252 | 0.146
21 | NCI-H460 | 1 | 1.06 | 0.806 | 0.0507 | 0.0208 | 0.401 | 0.294 | 0.136 | 0.344 | 0.329 | 0.419 | 0.504 | 0.424 | 0.443 | 0.188 | 0.448 | 0.53 | 0.441 | 0.25 | 0.112
22 | EMC-BAC-2 | 0.878 | 0.908 | 0.886 | 0.74 | 0.897 | 0.539 | 0.559 | 0.521 | 0.522 | 0.51 | 0.279 | 0.294 | 0.25 | 0.289 | 0.263 | 0.478 | 0.526 | 0.398 | 0.466 | 0.371
23 | NCI-H23 | 1.13 | 1.23 | 0.805 | 0.619 | 0.458 | 0.43 | 0.442 | 0.57 | 0.4 | 0.197 | 0.378 | 0.484 | 0.454 | 0.301 | 0.241 | 0.745 | 0.746 | 0.821 | 0.718 | 0.597
24 | A-427 | 1.08 | 0.884 | 1.03 | 1.09 | 0.992 | 0.727 | 0.698 | 0.593 | 0.719 | 0.615 | 0.164 | 0.24 | 0.243 | 0.212 | 0.191 | 0.339 | 0.342 | 0.32 | 0.287 | 0.165
25 | ABC-1 | 0.87 | 1.15 | 1.25 | 1.04 | 1.33 | 0.72 | 0.929 | 0.737 | 0.468 | 0.26 | 0.181 | 0.17 | 0.177 | 0.209 | 0.223 | 0.226 | 0.215 | 0.291 | 0.22 | 0.297
26 | NCI-H322M | 0.59 | 0.505 | 0.763 | 0.608 | 0.546 | 0.545 | 0.484 | 0.665 | 0.467 | 0.5 | 0.505 | 0.451 | – | 0.463 | 0.344 | 0.855 | 0.603 | – | 0.824 | 0.62
27 | COR-L23 | 0.954 | 0.957 | 0.714 | 0.254 | 0.199 | 0.792 | 0.946 | 0.737 | 0.252 | 0.154 | 0.233 | 0.182 | 0.217 | 0.111 | 0.108 | 0.443 | 0.479 | 0.425 | 0.328 | 0.216
